Laboratory results as given in patent US20120004282A1, “RNA Interference Mediated Inhibition of the Intercellular Adhesion Molecule 1 (ICAM-1) Gene Expression Using Short Interfering Nucleic Acid (siNA)” (Merck Sharp & Dohme Corp,, priority 2009, published 2012).
[invAb] = inverted abasic unit; m = 2'-O-methyl; r = 2'-OH (RNA); f = 2'-fluoro

system: ICAM-1 mRNA; test: ICAM-1 mRNA knock-down in transfected Calu-1 cells (Taqman RT-PCR); type: cell-based, human; conditions: Calu-1 cells, 10 nM siNA, 24 hrs post-transfection, mean ± S.D., relative to non-targeting control
Description: Calu-1 (human; ATCC cat# HTB-54): Cells were cultured at 37° C. in the presence of 5% CO2 and grown in McCoy's 5a medium supplemented with fetal bovine serum at a final concentration of 10% and 100 μg/mL of streptomycin and 100 U/mL penicillin.
All transfections were performed using RNAiMax (Invitrogen Cat# 13778-150) as per the manufacturer's instructions.
Calu-1 cells were plated in all wells of a tissue-culture treated, 96-well plate at final counts of 5,000 cells/well in 100 μL of appropriate culture media. Cells were cultured for 24 hours after plating at 37° C. in the presence of 5% CO2.
After 24 hours, complexes containing siNA and RNAiMax were created as follows. A solution of RNAiMax diluted 33-fold in OPTI-MEM was prepared. In parallel, solutions of the siNAs for testing were prepared to a final concentration of 120 nM in OPTI-MEM. After incubation of RNAiMax/OPTI-MEM solution at room temperature for 5 min, an equal volume of the siNA solution and the RNAiMax solution were added together for each of the siNAs. […] This solution was incubated at room temperature for 20 minutes. After incubation, 20 uL of the solution was added to each of the relevant wells. The final concentration of siNA in each well was 10 nM and the final volume of RNAiMax in each well was 0.3 uL.
The time of incubation with the RNAiMax-siNA complexes was 24 hours, unless otherwise indicated. There was no change in media between the transfection and harvesting of the cells unless otherwise indicated.
Dose response curves were carried out in a similar fashion in 96-well plates, while maintaining a constant amount of RNAiMax in each transfection.
RNA was extracted from a 96-well plate using the TaqMan® Gene Expression Cells-to-CT™ Kit (Cat# 4399002) with a modified protocol. Briefly, a 60 uL (1 plate) or 110 uL (2 plates) of the Lysis Solution with DNase I was dispensed into each well of the Lysis Buffer Plate (twin.tec full skirt plate). The lysis buffer and stop plates were stored at 4° C. until the cells were washed.
The plate was spun at 1100 rpm for 5 minutes. The culture medium was aspirated and discarded from the wells of the culture plate. The lysis was performed automatically using a BioMek FX instrument and method. After the Biomek method was completed, the lysis plate was incubated for 2 min. at room temperature. The lysis plate can be stored for 2 hours at 4° C., or at −20° C. or −80° C. for two months.
Each well of the reverse transcription plate required 10 uL of 2× reverse transcriptase Buffer, 1 uL of 20× reverse transcription enzyme and 2 uL of nuclease-free water. The reverse transcription master mix was prepared by mixing 2× reverse transcription buffer, 20× reverse transcription enzyme mix, and nuclease-free water. 13 uL of the reverse transcription master mix was dispensed into each well of the reverse transcription plate (semi-skirted). A separate reverse transcription plate was prepared for each cell plate. The plate was loaded onto a Biomek NX or Biomek FX Dual-96 and the Biomek method was run. The program is programmed to automatically added 7 uL of lysate from the cell lysis procedure described above into each well of the reverse transcription plate. The plate is sealed and spun on a centrifuge (1000 rpm for 30 seconds) to settle the contents to the bottom of the reverse transcription plate. The plate is placed in a thermocycler at 37° C. for 60 min, 95° C. for 5 min, and 4° C. until the plate is removed from the thermocycler. Upon removal, if not used immediately, the plate was frozen at −20° C.
A series of probes and primers were used to detect the various mRNA transcripts of the genes of ICAM-1 and ICAM-2 in human cell lines (see Table 2). All the Taqman probes and primers for the experiments here-in described were supplied as pre-validated sets by Applied Biosystems, Inc., (see Table 2). The assays were performed on an ABI 7900 instrument, according to the manufacturer's instructions. […]

In order of rising “% KD Human” value:
1. 48717-DC: siNA duplex, ICAM-1 target site 911 (m); sense B GGuGAcuGAGGAGuucGAc TTB; antisense GUCGAAcuccucAGucAccUU (sense GGUGACUGAGGAGUUCGACTT; antisense GUCGAACUCCUCAGUCACCUU; sense: DNA at AGT, 2'-fluoro at CU, [invAb] at 5' end, 3' end, backbone not given here; antisense: sugars from the 5' end rrrmmmffffffmmffmffmm, backbone not given here)  −9 ± 17%
2. 48705-DC: siNA duplex, ICAM-1 target site 987 (m); sense B AGGAccuuAAcAGucuAcA TTB; antisense UGUAGAcuGuuAAGGuccuUU (sense AGGACCUUAACAGUCUACATT; antisense UGUAGACUGUUAAGGUCCUUU; sense: DNA at AGT, 2'-fluoro at CU, [invAb] at 5' end, 3' end, backbone not given here; antisense: sugars from the 5' end rrrmmmffmffmmmmffffmm, backbone not given here)  5 ± 51%
3. 48702-DC: siNA duplex, ICAM-1 target site 990 (m); sense B AccuuAAcAGucuAcAAcu TTB; antisense AGUuGuAGAcuGuuAAGGuUU (sense ACCUUAACAGUCUACAACUTT; antisense AGUUGUAGACUGUUAAGGUUU; sense: DNA at AGT, 2'-fluoro at CU, [invAb] at 5' end, 3' end, backbone not given here; antisense: sugars from the 5' end rrrfmfmmmffmffmmmmfmm, backbone not given here)  19 ± 6%
4. 48716-DC: siNA duplex, ICAM-1 target site 368 (m); sense B GcAGucGuccGcuuccGcu TTB; antisense AGCGGAAGcGGAcGAcuGcUU (sense GCAGUCGUCCGCUUCCGCUTT; antisense AGCGGAAGCGGACGACUGCUU; sense: DNA at AGT, 2'-fluoro at CU, [invAb] at 5' end, 3' end, backbone not given here; antisense: sugars from the 5' end rrrmmmmmfmmmfmmffmfmm, backbone not given here)  22 ± 6%
5. 48706-DC: siNA duplex, ICAM-1 target site 250 (m); sense B GcuuGGAGAcucAGuGGcu TTB; antisense AGCcAcuGAGucuccAAGcUU (sense GCUUGGAGACUCAGUGGCUTT; antisense AGCCACUGAGUCUCCAAGCUU; sense: DNA at AGT, 2'-fluoro at CU, [invAb] at 5' end, 3' end, backbone not given here; antisense: sugars from the 5' end rrrfmffmmmfffffmmmfmm, backbone not given here)  23 ± 31%
6. 48710-DC: siNA duplex, ICAM-1 target site 1574 (m); sense B ccucGuGAuGGcAGccucu TTB; antisense AGAGGcuGccAucAcGAGGUU (sense CCUCGUGAUGGCAGCCUCUTT; antisense AGAGGCUGCCAUCACGAGGUU; sense: DNA at AGT, 2'-fluoro at CU, [invAb] at 5' end, 3' end, backbone not given here; antisense: sugars from the 5' end rrrmmffmffmffmfmmmmmm, backbone not given here)  25 ± 5%
7. 48703-DC: siNA duplex, ICAM-1 target site 394 (m); sense B ccGuGuAuucGuuuccGGA TTB; antisense UCCGGAAAcGAAuAcAcGGUU (sense CCGUGUAUUCGUUUCCGGATT; antisense UCCGGAAACGAAUACACGGUU; sense: DNA at AGT, 2'-fluoro at CU, [invAb] at 5' end, 3' end, backbone not given here; antisense: sugars from the 5' end rrrmmmmmfmmmfmfmfmmmm, backbone not given here)  30 ± 15%
8. 48709-DC: siNA duplex, ICAM-1 target site 988 (m); sense B GGAccuuAAcAGucuAcAA TTB; antisense UUGuAGAcuGuuAAGGuccUU (sense GGACCUUAACAGUCUACAATT; antisense UUGUAGACUGUUAAGGUCCUU; sense: DNA at AGT, 2'-fluoro at CU, [invAb] at 5' end, 3' end, backbone not given here; antisense: sugars from the 5' end rrrfmmmffmffmmmmfffmm, backbone not given here)  32 ± 14%
9. 48712-DC: siNA duplex, ICAM-1 target site 1579 (m); sense B uGAuGGcAGccucuuAuGu TTB; antisense ACAuAAGAGGcuGccAucAUU (sense UGAUGGCAGCCUCUUAUGUTT; antisense ACAUAAGAGGCUGCCAUCAUU; sense: DNA at AGT, 2'-fluoro at CU, [invAb] at 5' end, 3' end, backbone not given here; antisense: sugars from the 5' end rrrfmmmmmmffmffmffmmm, backbone not given here)  34 ± 27%
10. 48724-DC: siNA duplex, ICAM-1 target site 560 (h); sense B cuGAGcAAuGuGcAAGAAG TTB; antisense CUUcuuGcAcAuuGcucAcUU (sense CUGAGCAAUGUGCAAGAAGTT; antisense CUUCUUGCACAUUGCUCACUU; sense: DNA at AGT, 2'-fluoro at CU, [invAb] at 5' end, 3' end, backbone not given here; antisense: sugars from the 5' end rrrfffmfmfmffmfffmfmm, backbone not given here)  34 ± 8%
11. 48713-DC: siNA duplex, ICAM-1 target site 709 (m); sense B GGAcuuucGAucuuccAGc TTB; antisense GCUGGAAGAucGAAAGuccUU (sense GGACUUUCGAUCUUCCAGCTT; antisense GCUGGAAGAUCGAAAGUCCUU; sense: DNA at AGT, 2'-fluoro at CU, [invAb] at 5' end, 3' end, backbone not given here; antisense: sugars from the 5' end rrrmmmmmmffmmmmmfffmm, backbone not given here)  36 ± 17%
12. 29292-DC: siNA duplex, ICAM-1 target site 863 (h); sense B GccAAuuucucGuGccGcA TTB; antisense UGCGGcAcGAGAAAuuGGcUU (sense GCCAAUUUCUCGUGCCGCATT; antisense UGCGGCACGAGAAAUUGGCUU; sense: DNA at AGT, 2'-fluoro at CU, [invAb] at 5' end, 3' end, backbone not given here; antisense: sugars from the 5' end rrrmmfmfmmmmmmffmmfmm, backbone not given here)  76 ± 3%
13. 29291-DC: siNA duplex, ICAM-1 target site 2120 (h); sense B GAucuGuAGucAcAuGAcu TTB; antisense AGUcAuGuGAcuAcAGAucUU (sense GAUCUGUAGUCACAUGACUTT; antisense AGUCAUGUGACUACAGAUCUU; sense: DNA at AGT, 2'-fluoro at CU, [invAb] at 5' end, 3' end, backbone not given here; antisense: sugars from the 5' end rrrfmfmfmmffmfmmmffmm, backbone not given here)  84 ± 7%
